The values that follow come from publication PMC8887546, “Design and Synthesis of Brain Penetrant Glycopeptide Analogues of PACAP With Neuroprotective Potential for Traumatic Brain Injury and Parkinsonism” (Frontiers in drug discovery, 2022).

pEC50: −log10 of the molar value.

Common to all, as to type: cell-based
For test [1], the target named is T1, human VPAC1 receptor (Homo sapiens, UniProt P32241).
T1 construct: expressed in transfected cells; host or cells: CHO cells (G418 selection)
T1 sequence (P32241 31-457): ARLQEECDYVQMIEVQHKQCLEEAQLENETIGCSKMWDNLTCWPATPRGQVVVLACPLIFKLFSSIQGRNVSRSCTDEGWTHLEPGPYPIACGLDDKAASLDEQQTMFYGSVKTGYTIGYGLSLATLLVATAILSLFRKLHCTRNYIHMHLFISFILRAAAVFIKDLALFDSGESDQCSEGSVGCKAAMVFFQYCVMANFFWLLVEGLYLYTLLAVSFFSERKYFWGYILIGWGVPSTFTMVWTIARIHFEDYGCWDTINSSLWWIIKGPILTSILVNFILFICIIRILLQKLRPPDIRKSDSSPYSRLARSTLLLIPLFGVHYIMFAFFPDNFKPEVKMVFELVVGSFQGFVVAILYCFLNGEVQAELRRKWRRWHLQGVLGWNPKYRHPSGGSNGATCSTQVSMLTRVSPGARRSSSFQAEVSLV
As to the kind of experiment: cAMP stimulation in CHO cells expressing VPAC1. Particulars: for Emax: CHO, read-out: VPAC1 Emax; for Receptor selectivity ratio VPAC1/PAC1: ratio of cAMP EC50 values; for pEC50: read-out: VPAC1 EC50.

Test [2] deals with T2, human VPAC2 receptor (Homo sapiens, UniProt P41587).
T2 construct: expressed in transfected cells; host or cells: CHO cells (G418 selection)
T2 sequence (P41587 24-438): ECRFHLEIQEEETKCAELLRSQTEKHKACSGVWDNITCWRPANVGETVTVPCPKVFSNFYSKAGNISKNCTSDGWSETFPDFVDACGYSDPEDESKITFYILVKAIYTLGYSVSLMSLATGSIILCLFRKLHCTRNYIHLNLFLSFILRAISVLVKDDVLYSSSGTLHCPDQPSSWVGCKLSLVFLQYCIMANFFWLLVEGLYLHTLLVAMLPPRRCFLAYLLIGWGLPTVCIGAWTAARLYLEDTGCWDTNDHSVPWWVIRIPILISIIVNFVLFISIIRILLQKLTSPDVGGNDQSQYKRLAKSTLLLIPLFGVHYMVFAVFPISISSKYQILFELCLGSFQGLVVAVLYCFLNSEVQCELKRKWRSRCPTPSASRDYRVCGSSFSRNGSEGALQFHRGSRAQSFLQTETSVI
In words: cAMP stimulation in CHO cells expressing VPAC2. Particulars: for Emax: CHO; for Receptor selectivity ratio VPAC2/PAC1 / Receptor selectivity ratio VPAC2/VPAC1: ratio of cAMP EC50 values. As for the experimental part: Briefly, human PAC1, VPAC1, and VPAC2 receptors expressed in CHO cells were used for all experiments. Cells were grown in 50:50 DMEM-F12 medium with 10% heat-inactivated fetal bovine serum, 1X penicillin-streptomycin supplement, and 500 μg/ml G418 (neomycin) to maintain selection (all from ThermoFisher) at 37°C with 5% CO2 atmosphere. For the cAMP assay, cells were seeded at 20,000 cells/well in a 96 well plate, recovered overnight, then serum starved for 4 h. The cells were then incubated with 500 μM IBMX for 20 min, followed by agonist concentration curves in 500 μM IBMX media for 10 min. The reaction was terminated, boiled, then collected, followed by competition with 7 μg of bovine protein kinase A (Sigma-Aldrich) and ∼1 pmol of ^3H-cAMP (PerkinElmer). The assay was incubated at room temp for 1 h, then collected onto GF/B filter plates and the data read using a MicroBeta2 scintillation counter (PerkinElmer).

In test [3] the target is T3, human PAC1 receptor (Homo sapiens, UniProt P41586).
T3 construct: expressed in transfected cells; host or cells: CHO cells (G418 selection)
T3 sequence (P41586 21-468): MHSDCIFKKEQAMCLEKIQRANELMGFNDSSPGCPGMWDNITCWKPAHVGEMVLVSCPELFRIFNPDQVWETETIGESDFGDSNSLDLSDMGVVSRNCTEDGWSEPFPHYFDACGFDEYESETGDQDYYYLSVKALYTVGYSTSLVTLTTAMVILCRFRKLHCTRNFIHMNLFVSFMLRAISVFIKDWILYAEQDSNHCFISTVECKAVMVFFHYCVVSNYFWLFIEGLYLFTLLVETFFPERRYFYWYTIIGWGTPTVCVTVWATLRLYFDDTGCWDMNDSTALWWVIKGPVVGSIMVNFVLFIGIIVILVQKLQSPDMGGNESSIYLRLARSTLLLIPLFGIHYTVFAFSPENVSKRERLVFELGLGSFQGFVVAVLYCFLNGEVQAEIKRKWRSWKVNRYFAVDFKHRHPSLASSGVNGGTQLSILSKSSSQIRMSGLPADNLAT
As to the kind of experiment: cAMP stimulation in CHO cells expressing PAC1. The conditions noted are these: for Emax: CHO. In short, it runs like this:
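Serum-starved CHO cells expressing human receptors were pre-treated 20 min with 500 μM IBMX, then exposed to agonist concentration curves for 10 min in 500 μM IBMX. cAMP quantified by competition with bovine PKA and ^3H-cAMP (1 h, room temperature), scintillation read.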

As for `[2H]C([2H])([2H])C([2H])(C([2H])([2H])[2H])[C@]([2H])(NC(=O)[C@H](C)NC(=O)[C@H](C)NC(=O)[C@H](CC(C)C)NC(=O)[C@H](Cc1ccc(O)cc1)NC(=O)[C@H](CCCCN)NC(=O)[C@H](CCCCN)NC(=O)[C@@H](NC(=O)[C@H](C)NC(=O)[C@H](CC(C)C)NC(=O)[C@H](CCC(N)=O)NC(=O)[C@H](CCCCN)NC(=O)[C@H](CCCNC(=N)N)NC(=O)[C@H](Cc1ccc(O)cc1)NC(=O)[C@H](CCCNC(=N)N)NC(=O)[C@H](CO)NC(=O)[C@H](Cc1ccc(O)cc1)NC(=O)[C@H](CO)NC(=O)[C@H](CC(=O)O)NC(=O)[C@@H](NC(=O)[C@H](Cc1ccccc1)NC(=O)[C@@H](NC(=O)CNC(=O)[C@H](CC(=O)O)NC(=O)[C@H](CO)NC(=O)[C@@H](N)Cc1c[nH]cn1)[C@@H](C)CC)[C@@H](C)O)C(C)C)C(=O)N[C@@H](CC(C)C)C(=O)N[C@@H](CO[C@@H]1O[C@H](CO)[C@@H](O[C@@H]2O[C@H](CO)[C@@H](O)[C@H](O)[C@H]2O)[C@H](O)[C@H]1O)C(N)=O` [Compound 2LS98Cell], in test [1], the Emax (in general, the maximal effect, on the per cent scale that the assay sets) stood at 93%; the “Receptor selectivity ratio VPAC1/PAC1” value is reported as 0.62; the pEC50 (usually the EC50 on a negative log10 scale, so that one unit is a factor of ten) is 9.28. Besides, in test [2], the pEC50 is 7.25, the Emax is 91%, the “Receptor selectivity ratio VPAC2/PAC1” value is 66.19 and the “Receptor selectivity ratio VPAC2/VPAC1” value is 106.92. In test [3], this molecule gave a pEC50 of 9.08 and an Emax of 92%.

As to `CCCC[C@H](NC(=O)CN(C)C(=O)[C@H](CC(=O)O)NC(=O)[C@@H](CO)NC(=O)[C@H](Cc1c[nH]cn1)NC(C)=O)C(=O)N[C@@H](Cc1ccccc1)C(=O)N[C@H](C(=O)N[C@@H](CC(=O)O)C(=O)N[C@@H](CO)C(=O)N[C@@H](Cc1ccc(O)cc1)C(=O)N[C@@H](CO)C(=O)N[C@@H](CCCNC(=N)N)C(=O)N[C@@H](Cc1ccc(O)cc1)C(=O)N[C@@H](CCCNC(=N)N)C(=O)N[C@@H](CCCCN)C(=O)N[C@@H](CCC(N)=O)C(=O)N[C@@H](CCC)C(=O)N[C@@H](C)C(=O)N[C@H](C(=O)N[C@@H](CCCCN)C(=O)N[C@@H](CCCCN)C(=O)N[C@@H](Cc1ccc(O)cc1)C(=O)N[C@@H](CC(C)C)C(=O)N[C@@H](C)C(=O)N[C@@H](C)C(=O)N[C@H](C(=O)N[C@@H](CC(C)C)C(=O)N[C@@H](CO[C@@H]1O[C@H](CO)[C@@H](O)[C@H](O)[C@H]1O)C(N)=O)C(C)C)C(C)C)[C@@H](C)O` [Ac-CRA 3018], the figures for the maximum response (Emax) in test [1], in test [2] and in test [3] were 36%, 31% and 35%, respectively. Further, the values for the negative-log EC50 (pEC50) in test [1], in test [2] and in test [3] were 6.38, under 5.60 and under 5.60, respectively.

Regarding `CCC[C@H](NC(=O)[C@H](CCC(N)=O)NC(=O)[C@H](CCCCN)NC(=O)[C@H](CCCNC(=N)N)NC(=O)[C@H](Cc1ccc(O)cc1)NC(=O)[C@H](CCCNC(=N)N)NC(=O)[C@H](CO)NC(=O)[C@H](Cc1ccc(O)cc1)NC(=O)[C@H](CO)NC(=O)[C@H](CC(=O)O)NC(=O)[C@@H](NC(=O)[C@H](Cc1ccccc1)NC(=O)[C@@H](NC(=O)CNC(=O)[C@H](CC(=O)O)NC(=O)[C@@H](CO)NC(=O)[C@H](Cc1c[nH]cn1)NC(C)=O)[C@@H](C)CC)[C@@H](C)O)C(=O)N[C@@H](C)C(=O)N[C@H](C(=O)N[C@@H](CCCCN)C(=O)N[C@@H](CCCCN)C(=O)N[C@@H](Cc1ccc(O)cc1)C(=O)N[C@@H](CC(C)C)C(=O)N[C@@H](C)C(=O)N[C@@H](C)C(=O)N[C@H](C(=O)N[C@@H](CC(C)C)C(=O)N[C@@H](CO[C@@H]1O[C@H](CO)[C@@H](O[C@@H]2O[C@H](CO)[C@H](O)[C@H](O)[C@H]2O)[C@H](O)[C@H]1O)C(N)=O)C(C)C)C(C)C` [Ac-CRA 3000-Lac], the maximal response (Emax) in test [1] stood at 99%; in test [2], 114%; in test [3], 86%.

For the molecule `CCC[C@H](NC(=O)[C@H](CCC(N)=O)NC(=O)[C@H](CCCCN)NC(=O)[C@H](CCCNC(=N)N)NC(=O)[C@H](Cc1ccc(O)cc1)NC(=O)[C@H](CCCNC(=N)N)NC(=O)[C@H](CO)NC(=O)[C@H](Cc1ccc(O)cc1)NC(=O)[C@H](CO)NC(=O)[C@H](CC(=O)O)NC(=O)[C@@H](NC(=O)[C@H](Cc1ccccc1)NC(=O)[C@@H](NC(=O)CCCCNC(=O)[C@H](CC(=O)O)NC(=O)[C@@H](CO)NC(=O)[C@@H](N)Cc1c[nH]cn1)[C@@H](C)CC)[C@@H](C)O)C(=O)N[C@@H](C)C(=O)N[C@H](C(=O)N[C@@H](CCCCN)C(=O)N[C@@H](CCCCN)C(=O)N[C@@H](Cc1ccc(O)cc1)C(=O)N[C@@H](CC(C)C)C(=O)N[C@@H](C)C(=O)N[C@@H](C)C(=O)N[C@H](C(=O)N[C@@H](CC(C)C)C(=O)N[C@@H](CO[C@@H]1O[C@H](CO)[C@@H](O)[C@H](O)[C@H]1O)C(N)=O)C(C)C)C(C)C` [CRA 3009], in test [1], the Emax was 125%, the “Receptor selectivity ratio VPAC1/PAC1” value came to 1.86 and the pEC50 was 6.12. In test [2], this molecule showed a pEC50 of under 5.60 and an Emax of 55%. Moreover, in test [3], the pEC50 was 6.39 and the maximal effect (Emax) is 75%.

`CCC[C@H](NC(=O)[C@H](CCC(N)=O)NC(=O)[C@H](CCCCN)NC(=O)[C@H](CCCNC(=N)N)NC(=O)[C@H](Cc1ccc(O)cc1)NC(=O)[C@H](CCCNC(=N)N)NC(=O)[C@H](CO)NC(=O)[C@H](Cc1ccc(O)cc1)NC(=O)[C@H](CO)NC(=O)[C@H](CC(=O)O)NC(=O)[C@@H](NC(=O)[C@H](Cc1ccccc1)NC(=O)[C@@H](NC(=O)CNC(=O)[C@H](CC(=O)O)NC(=O)[C@@H](CO)NC(=O)[C@H](Cc1c[nH]cn1)NC(C)=O)[C@@H](C)CC)[C@@H](C)O)C(=O)N[C@@H](C)C(=O)N[C@H](C(=O)N[C@@H](CCCCN)C(=O)N[C@@H](CCCCN)C(=O)N[C@@H](Cc1ccc(O)cc1)C(=O)N[C@@H](CC(C)C)C(=O)N[C@@H](C)C(=O)N[C@@H](C)C(=O)N[C@H](C(=O)N[C@@H](CC(C)C)C(=O)N[C@@H](CO[C@@H]1O[C@H](CO)[C@@H](O)[C@H](O)[C@H]1O)C(N)=O)C(C)C)C(C)C` [Ac-CRA3000]: the maximal effect (Emax) in test [1] was 94%; in test [2], 106%; in test [3], 90%.

On to `CC[C@H](C)[C@H](NC(=O)CNC(=O)[C@H](CC(=O)O)NC(=O)[C@H](CO)NC(=O)[C@@H](N)Cc1c[nH]cn1)C(=O)N[C@@H](Cc1ccccc1)C(=O)N[C@H](C(=O)N[C@@H](CC(=O)O)C(=O)N[C@@H](CO)C(=O)N[C@@H](Cc1ccc(O)cc1)C(=O)N[C@@H](CO)C(=O)N[C@@H](CCCNC(=N)N)C(=O)N[C@@H](Cc1ccc(O)cc1)C(=O)N[C@@H](CCCNC(=N)N)C(=O)N[C@@H](CCCCN)C(=O)N[C@@H](CCC(N)=O)C(=O)N[C@@H](CC(C)C)C(=O)N[C@@H](C)C(=O)N[C@H](C(=O)N[C@@H](CCCCN)C(=O)N[C@@H](CCCCN)C(=O)N[C@@H](Cc1ccc(O)cc1)C(=O)N[C@@H](CC(C)C)C(=O)N[C@@H](C)C(=O)N[C@@H](C)C(=O)N[C@H](C(=O)N[C@@H](CC(C)C)C(=O)N[C@@H](CO[C@@H]1O[C@H](CO)[C@@H](O)[C@H](O)[C@H]1O)C(=O)N[C@@H](CO[C@@H]1O[C@H](CO)[C@@H](O)[C@H](O)[C@H]1O)C(N)=O)C(C)C)C(C)C)[C@@H](C)O` [Compound 2LS140], for which, in test [1], the Emax is 108%, the “Receptor selectivity ratio VPAC1/PAC1” value was 1.37 and the negative-log EC50 (pEC50) is 8.51. In addition, in test [2], the pEC50 is 6.81, the Emax was 106%, the “Receptor selectivity ratio VPAC2/PAC1” value is on record as 69.96 and the “Receptor selectivity ratio VPAC2/VPAC1” value stood at 50.98. Also, in test [3], the negative logarithm of the EC50 (pEC50) was 8.65 and the Emax was 102%.
